Series [1] is described as follows: pH measurement of 2 g of substance in 75 ml H2O.
The format of series [2] is physicochemical. To be noted: for dissolution upon visual inspection: 2 g in 75 ml distilled water, stirred mechanically ~5 min.
For series [3], the system named is cognitive function. To be noted: cited from earlier work.
Series [4] relates to age-associated memory impairment. To be noted: humans; cited from earlier work.
For series [5], the system named is cerebral ischemia. Conditions: oral administration to experimental animals; cited from earlier work.

Read-outs that look alike come from different tables or passages of the source.

Take `CN(CC(=O)O)C(=N)N.O` [creatine monohydrate]: the “pH of 2 g in 75 ml H2O” value in series [1] is listed as roughly 7.00. Also, the “dissolution upon visual inspection” value in series [2] (Experiment 1) was “did not dissolve very well”. Besides, the “dissolution after lowering pH by adding pyroglutamic acid” value in series [2] (Experiment 1, creatine monohydrate 2 g in 75 ml water, some pyroglutamic acid added) was “dissolved”. Moreover, the “dissolution after 30 min of stirring” value in series [2] (Experiment 2, 2 g in 75 ml distilled H2O, 30 min stirring) is recorded as “still a considerable amount of solids that did not dissolve”.
Turning to `O=C1CC[C@@H](C(=O)O)N1` [pyroglutamic acid, L-pyroglutamic acid], in series [1], the “pH of 2 g in 75 ml H2O” value is roughly 2.00. The “cognitive function in rats” value in series [3] is given as “improve”. The age-associated memory impairment result in series [4] is reported as “improves”.
`CN(CC(=O)O)C(=N)N` [Creatine, N-methyl-N-guanyl Glycine]: the ischemic brain infarction entry in series [5] was “remarkable reduction”.
“(2-(1-methylguanidino)acetyl)oxonium (S)-5-oxopyrrolidine-2-carboxylate [creatine pyroglutamate]”: the “pH of 2 g in 75 ml H2O” value in series [1] (listed as product obtained in Experiment 2) is 3.09; in series [1] (listed as unwashed product), roughly 3.00. Further, the “dissolution upon visual inspection” value in series [2] (Experiment 1) was “dissolved completely”. For the same compound, in series [2] (Experiment 2, 2 g in 75 ml distilled H2O, stirred), the “time to complete dissolution of crystals” value is recorded as no more than 5 min.

The values are drawn from patent publication US7479560B2, “Creatine pyroglutamic acid salts and methods for their production and use in individuals” (New Cell Formulations, Ltd., priority 2006, dated 2009).
